Measured values published in ChEMBL document CHEMBL4706474, “Tetrahydro-2-naphthyl and 2-Indanyl Triazolopyrimidines Targeting Plasmodium falciparum Dihydroorotate Dehydrogenase Display Potent and Selective Antimalarial Activity” (J Med Chem, 2016).
≈ marks a conversion by molar mass, not a printed value.

Legend:
[1] = AUC (0 to infinity) in Sprague-Dawley rat at 18.3 mg/kg, po measured over 24 hrs by LC-MS analysis; format: ADME, organism-based; parameters: route oral, dose 18.3 mg/kg, time >24; conditions: in vivo
[2] = Protein binding in Swiss mouse plasma at 20 mg/kg, po administered as single dose via gavage measured over 24 hrs by LC-MS analysis; format: ADME, organism-based; conditions: read-out: PPB (converted)
[3] = Unbound AUC (0 to infinity) in Sprague-Dawley rat at 18.3 mg/kg, po measured over 24 hrs by LC-MS analysis; format: ADME, organism-based; conditions: in vivo
[4] = AUC (0 to infinity) in Sprague-Dawley rat at […], iv administered as infusion for 10 mins by LC-MS analysis; format: ADME, organism-based; parameters: route intravenous, dose 1.1 mg/kg, time 10 min; conditions: in vivo
[5] = Volume of distribution at steady state in Sprague-Dawley rat at […], iv administered as infusion for 10 mins by LC-MS analysis; format: ADME, organism-based; conditions: in vivo, dose 1.1 mg/kg
in vivo [6] = conditions: Sprague-Dawley, rat, po, 18.3 mg/kg
Plasmodium falciparum = test: Antiplasmodial activity against Plasmodium falciparum 3D7 infected in RBC assessed as reduction in parasitemia incubated for 72 hrs by SYBR green dye-based assay; format: functional, organism-based; conditions: rbc
[7] = Elimination half-life in Swiss mouse at 20 mg/kg, po administered as single dose via gavage measured over 24 hrs by LC-MS analysis; format: ADME, organism-based; conditions: in vivo, read-out: beta t1/2 (converted)
[8] = Unbound AUC (0 to infinity) in Swiss mouse at 20 mg/kg, po administered as single dose via gavage measured over 24 hrs by LC-MS analysis; format: ADME, organism-based; conditions: in vivo
[9] = Kinetic solubility of compound in phosphate buffer at pH 6.5 measured after 30 mins by HPLC-UV based analysis; format: physicochemical; conditions: phosphate buffer, pH 6.5, read-out: Kinetic_solubility
[10] = Unbound clearance in Sprague-Dawley rat at […], iv administered as infusion for 10 mins by LC-MS analysis; format: ADME, organism-based; conditions: in vivo, dose 1.1 mg/kg
[11] = Apparent half-life in Swiss mouse at 20 mg/kg, po administered as single dose via gavage measured over 24 hrs by LC-MS analysis; format: ADME, organism-based; conditions: in vivo
[12] = Apparent half-life in Sprague-Dawley rat at […], iv administered as infusion for 10 mins by LC-MS analysis; format: ADME, organism-based; conditions: in vivo, dose 1.1 mg/kg, read-out: t1/2(app) (converted)
[13] = Protein binding in human plasma assessed as bound fraction by LC-MS analysis based ultracentrifugation assay; format: ADME, cell-free; conditions: read-out: PPB (converted)
[14] = Intrinsic clearance in rat liver microsomes assessed per mg protein at 1 uM by LC-MS analysis; format: ADME, Microsome; conditions: microsomes, 1 µM
[15] = Solubility of compound in 0.1 N HCl measured after 5 to 6 hrs by HPLC-UV based analysis; format: physicochemical; conditions: buffer; time 5-6 hrs
[16] = Lipophilicity, logD of the compound at pH 7.4; format: physicochemical; conditions: buffer
[17] = Unbound Cmax in Sprague-Dawley rat at 18.3 mg/kg, po measured over 24 hrs by LC-MS analysis; format: ADME, organism-based; conditions: in vivo
[18] = Protein binding in Sprague-Dawley rat plasma at […], iv administered as infusion for 10 mins by LC-MS analysis; format: ADME, organism-based; conditions: dose 1.1 mg/kg, read-out: PPB (converted)
[19] = AUC (0 to infinity) in Swiss mouse at 20 mg/kg, po administered as single dose via gavage measured over 24 hrs by LC-MS analysis; format: ADME, organism-based; parameters: route oral, dose 20 mg/kg, time >24; conditions: in vivo
[20] = Inhibition of yeast DHODH expressed in Plasmodium falciparum; parameters: species or system Saccharomyces cerevisiae
[21] = Unbound volume of distribution at steady state in Sprague-Dawley rat at […], iv administered as infusion for 10 mins by LC-MS analysis; format: ADME, organism-based; conditions: in vivo, dose 1.1 mg/kg
[22] = Inhibition of N-terminal His6-tagged Plasmodium falciparum DHODH expressed in Escherichia coli BL21 using L-DHO as substrate and CoQ as co-substrate by DCIP dye based spectrophotometric assay
[23] = Solubility of compound in FeSSIF at pH 5 measured after 5 to 6 hrs by HPLC-UV based analysis; format: physicochemical; conditions: simulated gi fluid, time 5-6 hrs
[24] = Unbound Cmax in Swiss mouse at 20 mg/kg, po administered as single dose via gavage measured over 24 hrs by LC-MS analysis; format: ADME, organism-based; conditions: in vivo
[25] = Oral bioavailability in Sprague-Dawley rat at 18.3 mg/kg measured over 24 hrs by LC-MS analysis; format: ADME, organism-based; conditions: in vivo
[26] = Solubility of compound in FaSSIF at pH 6.5 measured after 5 to 6 hrs by HPLC-UV based analysis
[27] = Protein binding in rat plasma assessed as bound fraction by LC-MS analysis based ultracentrifugation assay; format: ADME, cell-free; conditions: read-out: PPB (converted)
[28] = Cmax in Sprague-Dawley rat at 18.3 mg/kg, po measured over 24 hrs by LC-MS analysis; format: ADME, organism-based; parameters: route oral, dose 18.3 mg/kg, time >24; conditions: in vivo
[29] = Intrinsic clearance in mouse liver microsomes at 1 uM by LC-MS analysis; format: ADME, Microsome
[30] = Tmax in Swiss mouse at 20 mg/kg, po administered as single dose via gavage measured over 24 hrs by LC-MS analysis; format: ADME, organism-based; conditions: in vivo
[31] = Inhibition of N-terminal His6-tagged dog DHODH expressed in Escherichia coli BL21 using L-DHO as substrate and CoQ as co-substrate by DCIP dye based spectrophotometric assay; parameters: species or system Canis lupus familiaris
[32] = Unbound AUC (0 to infinity) in Sprague-Dawley rat at […], iv by LC-MS analysis; format: ADME, organism-based; conditions: in vivo, dose 1.1 mg/kg
[33] = Inhibition of N-terminal His6-tagged Plasmodium vivax DHODH expressed in Escherichia coli BL21 using L-DHO as substrate and CoQ as co-substrate by DCIP dye based spectrophotometric assay
[34] = Cmax in Swiss mouse at 20 mg/kg, po administered as single dose via gavage measured over 24 hrs by LC-MS analysis; format: ADME, organism-based; parameters: route oral, dose 20 mg/kg, time >24; conditions: in vivo
[35] = Unbound clearance in Sprague-Dawley rat at 2 mg/kg, iv administered as infusion for 10 mins by LC-MS analysis; format: ADME, organism-based; conditions: in vivo
[36] = Unbound volume of distribution at steady state in Sprague-Dawley rat at 2 mg/kg, iv administered as infusion for 10 mins by LC-MS analysis; format: ADME, organism-based; conditions: in vivo
[37] = Oral bioavailability in Sprague-Dawley rat at 24.4 mg/kg measured over 24 hrs by LC-MS analysis; format: ADME, organism-based; conditions: in vivo
[38] = Cmax in Sprague-Dawley rat at 24.4 mg/kg, po measured over 24 hrs by LC-MS analysis; format: ADME, organism-based; parameters: route oral, dose 24.4 mg/kg, time >24; conditions: in vivo
[39] = Protein binding in Sprague-Dawley rat plasma at 2 mg/kg, iv administered as infusion for 10 mins by LC-MS analysis; format: ADME, organism-based; conditions: read-out: PPB (converted)
[40] = Solubility of compound in FeSSIF at pH 5.8 measured after 5 to 6 hrs by HPLC-UV based analysis; format: physicochemical; conditions: simulated gi fluid, time 5-6 hrs
Cytochrome P450 3A4 = Cytochrome P450 3A4 (Homo sapiens, UniProt P08684); test: Inhibition of CYP3A4 in human liver microsomes using isoform-specific probe substrates in presence of NADPH-generating system by LC-MS analysis; format: ADME
Chain of Cytochrome P450 3A4 (P08684 whole entry, the tested form may be a part, canonical isoform): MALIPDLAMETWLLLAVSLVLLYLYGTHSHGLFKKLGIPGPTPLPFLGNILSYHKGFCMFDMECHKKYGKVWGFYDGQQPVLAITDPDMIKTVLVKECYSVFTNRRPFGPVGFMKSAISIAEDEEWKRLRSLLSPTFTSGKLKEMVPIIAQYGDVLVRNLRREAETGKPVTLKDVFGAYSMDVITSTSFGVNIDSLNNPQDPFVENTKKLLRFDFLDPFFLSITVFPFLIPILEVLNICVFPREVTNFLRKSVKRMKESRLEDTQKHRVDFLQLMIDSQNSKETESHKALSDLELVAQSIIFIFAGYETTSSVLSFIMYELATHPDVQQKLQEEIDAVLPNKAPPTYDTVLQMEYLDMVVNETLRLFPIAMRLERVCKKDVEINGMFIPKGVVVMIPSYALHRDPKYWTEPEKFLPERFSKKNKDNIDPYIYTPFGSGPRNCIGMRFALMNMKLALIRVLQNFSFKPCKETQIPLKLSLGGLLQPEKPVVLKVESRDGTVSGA

[41] = AUC (0 to infinity) in Sprague-Dawley rat at 2 mg/kg, iv administered as infusion for 10 mins by LC-MS analysis; format: ADME, organism-based; parameters: route intravenous, dose 2 mg/kg, time 10 min; conditions: in vivo
in vivo [42] = conditions: Sprague-Dawley, rat, po, 24.4 mg/kg
[43] = Protein binding in mouse plasma assessed as bound fraction by LC-MS analysis based ultracentrifugation assay; format: ADME, cell-free; conditions: read-out: PPB (converted)
[44] = Apparent half-life in Sprague-Dawley rat at 2 mg/kg, iv administered as infusion for 10 mins by LC-MS analysis; format: ADME, organism-based; conditions: in vivo, read-out: t1/2(app) (converted)
[45] = Unbound Cmax in Sprague-Dawley rat at 24.4 mg/kg, po measured over 24 hrs by LC-MS analysis; format: ADME, organism-based; conditions: in vivo
[46] = Unbound AUC (0 to infinity) in Sprague-Dawley rat at 24.4 mg/kg, po measured over 24 hrs by LC-MS analysis; format: ADME, organism-based; conditions: in vivo
[47] = Unbound AUC (0 to infinity) in Sprague-Dawley rat at 2 mg/kg, iv by LC-MS analysis; format: ADME, organism-based; conditions: in vivo
[48] = AUC (0 to infinity) in Sprague-Dawley rat at 24.4 mg/kg, po measured over 24 hrs by LC-MS analysis; format: ADME, organism-based; parameters: route oral, dose 24.4 mg/kg, time >24; conditions: in vivo
[49] = Volume of distribution at steady state in Sprague-Dawley rat at 2 mg/kg, iv administered as infusion for 10 mins by LC-MS analysis; format: ADME, organism-based; conditions: in vivo

Row | SMILES | fraction unbound at 24 h [2] | EC50 (Plasmodium falciparum) | half-life [7] | fAUC [8] | solubility kinetic at 0.5 h [9] | t1/2(app) [11] | fraction unbound [13] | Intrinsic clearance in rat liver microsomes (uL/min/mg protein) [14] | solubility [15] | logD [16] | AUC [19] | IC50 [22] | fCmax [24] | solubility [26] | fraction unbound [27] | intrinsic clearance [29] | Tmax [30] | IC50 [31] | IC50 [33] | Cmax [34] | also measured
1 | Cc1cc(NC2CCc3ccc(Br)cc3C2)n2nc(C(C)(F)F)nc2n1 (stereo in doubt) | 0.028 | 0.00039 µM | 2 h | 0.47 µM·h | 0.0016 mg/mL (≈ 3.79 µM) | 2.1 h | 0.037 | 39 µL/min | 0.052 mg/mL (≈ 123 µM) | 4 | 16.7 µM·h | 0.0046 µM | 0.13 µM | 0.0083 mg/mL (≈ 19.7 µM) | 0.028 | 32 µL/min | 1 h | > 100 µM | 0.012 µM | 4.5 µM | AUC(0-inf) [1]: 28.1 µM·h; fAUC [3]: 0.79 µM·h; AUC(0-inf) at 10 min [4]: 2 µM·h; Vdss [5]: 8.7 L/kg; Tmax at 24 h (in vivo [6]): 3.3 h; CL free [10]: 48 L/h/kg; half-life at 10 min [12]: 6.1 h; fCmax [17]: 0.07 µM; fraction unbound at 10 min [18]: 0.028; EC50 [20]: 7.4 µM; fVdss [21]: 311 L/kg; solubility [23]: 0.039 mg/mL (≈ 92.4 µM); bioavailability [25]: 86%; Cmax [28]: 2.7 µM; fAUC [32]: 0.05 µM·h
2 | Cc1cc(NC2CCc3cc(Br)ccc3C2)n2nc(C(C)(F)F)nc2n1 (stereo in doubt) | 0.008 | 0.0026 µM | 2 h | 0.41 µM·h | 0.0031 mg/mL (≈ 7.34 µM) | 2.1 h | 0.01 | 11 µL/min | 0.189 mg/mL (≈ 448 µM) | 4 | 51 µM·h | 0.0046 µM | 0.07 µM | 0.013 mg/mL (≈ 30.8 µM) | 0.003 | 26 µL/min | 1 h | > 100 µM | 0.024 µM | 8.6 µM | CL free [35]: 56 L/h/kg; fVdss [36]: 367 L/kg; bioavailability [37]: 86%; Cmax [38]: 37 µM; fraction unbound at 10 min [39]: 0.003; solubility [40]: 0.211 mg/mL (≈ 500 µM); IC50 (Cytochrome P450 3A4): > 20 µM; AUC(0-inf) [41]: 30 µM·h; Tmax at 24 h (in vivo [42]): 2.5 h; fraction unbound [43]: 0.008; half-life [44]: 6.2 h; fCmax [45]: 0.11 µM; fAUC [46]: 0.95 µM·h; fAUC [47]: 0.09 µM·h; AUC(0-inf) [48]: 318 µM·h; Vdss [49]: 1.1 L/kg
